Organism: Rattus norvegicus
Assay: DrugMatrix - Regimen: Daily Repeat
Assay type: toxicity, organism-based, Sprague-Dawley
Design: regimen Daily Repeat, gender Male, age 6-8 weeks
Conditions: in vivo, po, route oral GAVAGE, […]; for ABSOLUTE BASOPHIL / ABSOLUTE EOSINOPHIL / ABSOLUTE LYMPHOCYTE / ABSOLUTE MONOCYTE / ABSOLUTE SEGMENTED NEUTROPHIL / BASOPHIL / EOSINOPHIL / ERYTHROCYTE COUNT / HEMATOCRIT / HEMOGLOBIN / LEUKOCYTE COUNT / LYMPHOCYTE / MEAN CORPUSCULAR HEMOGLOBIN / MEAN CORPUSCULAR HEMOGLOBIN CONCENTRATION / MEAN CORPUSCULAR VOLUME / MONOCYTE / NEUTROPHIL / NUCLEATED RED BLOOD CELLS / PLATELET COUNT: tissue Blood; for ALANINE AMINOTRANSFERASE / ALBUMIN / ALKALINE PHOSPHATASE / ASPARTATE AMINOTRANSFERASE / BLOOD UREA NITROGEN / CARBON DIOXIDE / CHLORIDE / CHOLESTEROL / CREATINE PHOSPHOKINASE / CREATININE / GLUCOSE / LACTATE DEHYDROGENASE / LIPASE / PHOSPHORUS / POTASSIUM / SODIUM / TOTAL BILIRUBIN / TOTAL PROTEIN / URIC ACID: tissue Plasma
[1] = 1 mg/kg, 120 h, dose level Low, time 5 day
[2] = 9 mg/kg, 72 h, dose level High, time 3 day
[3] = 9 mg/kg, 120 h, dose level High, time 5 day

O=C(O)COC(=O)Cc1ccccc1Nc1c(Cl)cccc1Cl [ACECLOFENAC]
ABSOLUTE BASOPHIL [1]: 0 CELLS/uL
ABSOLUTE EOSINOPHIL [1]: 38.33 CELLS/uL
ABSOLUTE LYMPHOCYTE [1]: 9464 CELLS/uL
ABSOLUTE MONOCYTE [1]: 76.67 CELLS/uL
ABSOLUTE SEGMENTED NEUTROPHIL [1]: 854.33 CELLS/uL
BASOPHIL [1]: 0%
EOSINOPHIL [1]: 0.33%
ERYTHROCYTE COUNT [1]: 5.79 x10E6/uL
HEMATOCRIT [1]: 35.33%
HEMOGLOBIN [1]: 13.3 G/DL
LEUKOCYTE COUNT [1]: 10.43 x10E3/uL
LYMPHOCYTE [1]: 90.67%
MEAN CORPUSCULAR HEMOGLOBIN [1]: 23 pg
MEAN CORPUSCULAR HEMOGLOBIN CONCENTRATION [1]: 37.7 G/DL
MEAN CORPUSCULAR VOLUME [1]: 61.07 fL
MONOCYTE [1]: 0.67%
NEUTROPHIL [1]: 8.33%
NUCLEATED RED BLOOD CELLS [1]: 0 /100WBC
PLATELET COUNT [1]: 1057.67 x10E3/uL
ALANINE AMINOTRANSFERASE [1]: 60.67 u/L
ALBUMIN [1]: 4.07 G/DL
ALKALINE PHOSPHATASE [1]: 388 u/L
ASPARTATE AMINOTRANSFERASE [1]: 80.67 u/L
BLOOD UREA NITROGEN [1]: 14.33 mg/dL
CARBON DIOXIDE [1]: 30.33 mmol/L
CHLORIDE [1]: 101.33 MEQ/L
CHOLESTEROL [1]: 53.33 mg/dL
CREATINE PHOSPHOKINASE [1]: 180.67 u/L
CREATININE [1]: 0.15 mg/dL
GLUCOSE [1]: 160.67 mg/dL
LACTATE DEHYDROGENASE [1]: 106 u/L
LIPASE [1]: 9 u/L
PHOSPHORUS [1]: 9.9 mg/dL
POTASSIUM [1]: 5.17 MEQ/L
SODIUM [1]: 143 MEQ/L
TOTAL BILIRUBIN [1]: 0.23 mg/dL
TOTAL PROTEIN [1]: 5.8 G/DL
URIC ACID [1]: 0.83 mg/dL
ABSOLUTE BASOPHIL [2]: 0 CELLS/uL
ABSOLUTE EOSINOPHIL [2]: 21.67 CELLS/uL
ABSOLUTE LYMPHOCYTE [2]: 7429.67 CELLS/uL
ABSOLUTE MONOCYTE [2]: 92.33 CELLS/uL
ABSOLUTE SEGMENTED NEUTROPHIL [2]: 1189.67 CELLS/uL
BASOPHIL [2]: 0%
EOSINOPHIL [2]: 0.33%
ERYTHROCYTE COUNT [2]: 5.12 x10E6/uL
HEMATOCRIT [2]: 32.1%
HEMOGLOBIN [2]: 12.63 G/DL
LEUKOCYTE COUNT [2]: 8.73 x10E3/uL
LYMPHOCYTE [2]: 84.67%
MEAN CORPUSCULAR HEMOGLOBIN [2]: 24.73 pg
MEAN CORPUSCULAR HEMOGLOBIN CONCENTRATION [2]: 39.37 G/DL
MEAN CORPUSCULAR VOLUME [2]: 62.73 fL
MONOCYTE [2]: 1.33%
NEUTROPHIL [2]: 13.67%
NUCLEATED RED BLOOD CELLS [2]: 0 /100WBC
PLATELET COUNT [2]: 823.33 x10E3/uL
ALANINE AMINOTRANSFERASE [2]: 57 u/L
ALBUMIN [2]: 3.37 G/DL
ALKALINE PHOSPHATASE [2]: 253 u/L
ASPARTATE AMINOTRANSFERASE [2]: 77.33 u/L
BLOOD UREA NITROGEN [2]: 10.67 mg/dL
CARBON DIOXIDE [2]: 34 mmol/L
CHLORIDE [2]: 99 MEQ/L
CHOLESTEROL [2]: 73.67 mg/dL
CREATINE PHOSPHOKINASE [2]: 625.67 u/L
CREATININE [2]: 0.12 mg/dL
GLUCOSE [2]: 160.67 mg/dL
LACTATE DEHYDROGENASE [2]: 163.33 u/L
LIPASE [2]: 8.67 u/L
PHOSPHORUS [2]: 11.57 mg/dL
POTASSIUM [2]: 6.06 MEQ/L
SODIUM [2]: 143.37 MEQ/L
TOTAL BILIRUBIN [2]: 0.13 mg/dL
TOTAL PROTEIN [2]: 5.3 G/DL
URIC ACID [2]: 1.03 mg/dL
ABSOLUTE BASOPHIL [3]: 0 CELLS/uL
ABSOLUTE EOSINOPHIL [3]: 0 CELLS/uL
ABSOLUTE LYMPHOCYTE [3]: 9903.33 CELLS/uL
ABSOLUTE MONOCYTE [3]: 435.33 CELLS/uL
ABSOLUTE SEGMENTED NEUTROPHIL [3]: 2861.33 CELLS/uL
BASOPHIL [3]: 0%
EOSINOPHIL [3]: 0%
ERYTHROCYTE COUNT [3]: 4.91 x10E6/uL
HEMATOCRIT [3]: 29.6%
HEMOGLOBIN [3]: 11.33 G/DL
LEUKOCYTE COUNT [3]: 13.2 x10E3/uL
LYMPHOCYTE [3]: 75.33%
MEAN CORPUSCULAR HEMOGLOBIN [3]: 23.1 pg
MEAN CORPUSCULAR HEMOGLOBIN CONCENTRATION [3]: 38.33 G/DL
MEAN CORPUSCULAR VOLUME [3]: 60.27 fL
MONOCYTE [3]: 3.33%
NEUTROPHIL [3]: 21.33%
NUCLEATED RED BLOOD CELLS [3]: 0.33 /100WBC
PLATELET COUNT [3]: 1272 x10E3/uL
ALANINE AMINOTRANSFERASE [3]: 58.33 u/L
ALBUMIN [3]: 3.03 G/DL
ALKALINE PHOSPHATASE [3]: 312 u/L
ASPARTATE AMINOTRANSFERASE [3]: 78.33 u/L
BLOOD UREA NITROGEN [3]: 12 mg/dL
CARBON DIOXIDE [3]: 28.33 mmol/L
CHLORIDE [3]: 101.67 MEQ/L
CHOLESTEROL [3]: 58.33 mg/dL
CREATINE PHOSPHOKINASE [3]: 296.67 u/L
CREATININE [3]: 0.2 mg/dL
GLUCOSE [3]: 165 mg/dL
LACTATE DEHYDROGENASE [3]: 151 u/L
LIPASE [3]: 10 u/L
PHOSPHORUS [3]: 10.13 mg/dL
POTASSIUM [3]: 5.79 MEQ/L
SODIUM [3]: 144.97 MEQ/L
TOTAL BILIRUBIN [3]: 0.13 mg/dL
TOTAL PROTEIN [3]: 5.03 G/DL
URIC ACID [3]: 1.1 mg/dL
